US12492169B2, “Aminopyridine compound and application thereof” (priority 2020, dated 2025)
Converted amounts (≈) assume the structure as drawn. Read-outs that look alike come from different tables or passages of the source.

How the values were obtained:
[1] = Pharmacokinetic evaluation in rats (IV, PO); assay type: in vivo, Sprague-Dawley strain rats; details: Sprague-Dawley, plasma, Rat
Source text: (§1) Experimental Purpose: To evaluate the druggability of the compounds by measuring its pharmacokinetic properties in different animal species.
(§2) Experimental materials: CD-1 mice, Sprague-Dawley strain rats, beagle dogs, and crab-eating macaques.
(§3) Drug preparation: An appropriate amount of sample was weighed and then prepared into a clear or suspended solution.
(§4) Experimental procedure: The animal pharmacokinetic characteristics after intravenous injection and oral administration of the compound were tested using a standard protocol. The candidate compound was prepared as a clear solution (for intravenous injection) or a homogeneous suspension (for oral administration) during the experiment and administered to the animals as a single dose. Whole blood samples were collected at 0.083, 0.25, 0.5, 1, 2, 4, 8, and 24 hours, centrifuged at 3200 g for 10 minutes to separate the supernatant to obtain plasma samples. The plasma concentration was quantitatively analyzed by LC-MS/MS analysis method and pharmacokinetic parameters were calculated, such as peak concentration, peak time, clearance rate, half-life, area under the drug-time curve, etc.

[2] = test system: Cryptococcus neoformans H99 ATCC 208821; assay: Minimum inhibitory concentration (MIC) test against fungi; assay type: cell-based; details: Cryptococcus neoformans, ATCC208821, 72 h, ≥50% growth inhibition by eye, three independent experiments, read-out: MIC
Experimental: (§5) To test the minimum inhibitory concentration (MIC) and minimum effective concentration (MEC) of the drug against fungi.
Cryptococcus neoformans H99 ATCC 208821;
(§6) Test medium: RPMI1640 (containing 0.165 M MOPS, pH7.0)
(§7) On the day of the experiment, the compound in the bottle was dissolved in 100% DMSO to a stock solution concentration of 6.24 mg/mL. Then, the mixture was 10-fold diluted with DMSO to 0.624 mg/mL for use.
(§8) A 2-fold gradient dilution of the compound solution (0.624 mg/mL) was performed using DMSO on a 96-microwell plate (V-bottom) to obtain 100× working solutions (wells 1 to 11). 624, 312, 156, 78, 39, 20, 10, 5, 2.5, 1.25, 0.625 μg/mL. 100% DMSO was used as a positive control (well 12). This was the compound stock plate.
Cryptococcus neoformans H99 ATCC 208821 frozen at −80° C. was streaked on SDA plates and incubated aerobically in a 35±2° C. incubator for 48 hours.
(§9) On the day of the experiment, for strains Candida parapsilosis ATCC 22019, Candida albicans ATCC MYA-2876; Candida albicans WX-CA009; Candida glabrata ATCC15126; Candida tropicalis ATCC 750 and Cryptococcus neoformans H99 ATCC 208821, the plates were taken out and the clones on the plates were picked, suspended in normal saline, and then the turbidity of the fungal suspension was adjusted to OD600=0.2 using a turbidimeter. The fungal suspension contained about 3.0×10^6 CFU/mL. Then the turbidity-adjusted fungal suspension was diluted with a test medium to a concentration of about 3.0×10^3 CFU/mL. This was the inoculum.
(§10) 2 μL of 100× working solution from the compound stock plate (prepared in 3.1) was transferred to a round-bottomed 96-well plate (containing 98 μL of test medium), and then 100 μL of fungus inoculum (prepared in 3.2) was added to each well to obtain a MIC test plate. Therefore, the final test concentrations of the compounds were 6.24, 3.12, 1.56, 0.78, 0.39, 0.20, 0.10, 0.05, 0.025, 0.0125, 0.006 μg/mL. 1% DMSO was used as a growth control.
For Cryptococcus neoformans H99 ATCC 208821, all test plates were incubated aerobically in a 35±2° C. incubator for 72 hours.
(§11) After incubation, according to the criteria in Table 1 below, the test plate was observed by eye or microscope to determine the MIC (g/mL) and MEC (g/mL) of the test compound against yeast and mold.

[3] = test system: Candida glabrata ATCC15126; assay: as above; assay type: cell-based; details: ≥50% growth inhibition by eye, three independent experiments
Experimental: as §5
Experimental strains: Candida parapsilosis ATCC 22019; Candida albicans ATCC MYA-2876; Candida albicans WX-CA009; Candida glabrata ATCC15126; Candida tropicalis ATCC 750;
as §6, §7, §8
Candida parapsilosis ATCC 22019 and Candida albicans ATCC MYA-2876; Candida albicans WX-CA009; Candida glabrata ATCC15126; Candida tropicalis ATCC 750 frozen at −80° C. were streaked on SDA plates and incubated aerobically in a 35±2° C. incubator for 24 hours.
as §9, §10
For strains Candida parapsilosis ATCC 22019; Candida albicans ATCC MYA-2876; Candida albicans WX-CA009; Candida glabrata ATCC15126; Candida tropicalis ATCC 750, all test plates were incubated aerobically in a 35±2° C. incubator for 24 hours.
as §11

[4] = Pharmacokinetic evaluation in mice (IV); assay type: in vivo, CD-1 mice; details: CD-1, plasma, 1 mg/kg, Mouse, 1 mpk
Source text: as §1, §2, §3, §4

[5] = Mouse pharmacokinetic evaluation, intraperitoneal injection after oral ABT; assay type: in vivo; details: ip, female CD-1 mice, 26 mpk, ABT 50 mg/kg orally 2 hours before, plasma
Source text: Experimental Purpose: Using female CD-1 mice as test animals, LC/MS/MS was used to measure the plasma drug concentration at different times after intraperitoneal injection of the test compound. To study the pharmacokinetic behavior of the test compound in mice and evaluate its pharmacokinetic characteristics. Drug preparation: An appropriate amount of sample was weighed and then prepared into a clear or suspended solution. Administration scheme: Two healthy female CD-1 mice were taken, purchased from Beijing Vital River Laboratory Animal Technology Co., Ltd., and given a normal diet. The drug was administered through intraperitoneal injection. Operational steps: 2 hours before administration, 1-aminobenzotriazole (ABT) was orally administered (50 mg/kg, 5 mg/mL in normal saline), and after animal administration, about 30 μL of blood was collected at 0.083, 0.25, 0.5, 1, 2, 4, 8, and 24 hours, and placed in commercially available anticoagulant tubes pre-added with EDTA-K2. The tubes were centrifuged for 10 minutes to separate the plasma, and the plasma was stored at −60° C. The content of the target compound in the plasma sample was determined by LC/MS/MS method, and the experimental results are shown in Table 3.

in vivo = assay: in vivo; design: species or system crab-eating macaques; details: monkey
Source text: as §1, §2, §3, §4

[6] = crab-eating macaque (cynomolgus), iv, 0.4 mg/kg
[7] = crab-eating macaque (cynomolgus), po, 10 mg/kg

Work on `Nc1ccc(C#CCc2ccc(COc3ccccn3)cc2)cn1` [WX004] yielded an AUC ([1]; 3 mg/kg, IV, 3 mpk) of 22 µM·h, a Vd ([1]; 3 mg/kg, IV, 3 mpk) of 1.8 L/kg and a clearance ([1]; 3 mg/kg, IV, 3 mpk) of 7 mL/min/kg. It also gave a half-life ([1]; 3 mg/kg, IV, 3 mpk) of 4 h, an AUC ([1]; 30 mg/kg, PO, 30 mpk) of 95 µM·h and a Cmax ([1]; 30 mg/kg, PO, 30 mpk) of 10 µM. It also gave a Tmax ([1]; 30 mg/kg, PO, 30 mpk) of 1.5 h, a bioavailability ([1]; 30 mg/kg, PO, 30 mpk) of 45% and an MIC [2] of 1.56 µg/mL (≈ 4.95 µM). The MIC ([3]; Nakaseomyces glabratus, ATCC15126, 24 h, read-out: MIC) was 0.39 µg/mL (≈ 1.24 µM), the MIC ([3]; 24 hours) was 0.78 µg/mL (≈ 2.47 µM) and the AUC [4] was 2 µM·h. The Vd [4] was 5.2 L/kg, the clearance [4] was 28 mL/min/kg and the half-life [4] was 2.1 h. For the same compound, the AUC ([5]; read-out: Concentration Integral AUC) was 305 µM·h, the Cmax ([5]; read-out: Peak Concentration Cmax) was 19 µM and the Tmax ([5]; read-out: Peak Time Tmax) was 1 h. The AUC (in vivo; [6]) was 5 µM·h, the Vd (in vivo; [6]) was 4.4 L/kg and the clearance (in vivo; [6]) was 4.3 mL/min/kg. It also gave a Cmax (in vivo; [7]) of 9 µM, a Tmax (in vivo; [7]) of 4 h and an AUC (in vivo; crab-eating macaque, po, 10 mg/kg) of 72 µM·h. It also gave a half-life (in vivo; iv, 0.4 mg/kg) of 3.5 h and a bioavailability (in vivo; po, 10 mg/kg) of 60%.
